Key:
hLR5 cells [1] = assay: Conversion of hLR5 cells into stable pluripotent LD-hiPS colonies; type: cell-based, human; settings: for enhancement of hLR5 conversion: titration curve of GSK3β inhibitor alone or in combination with LIF and/or PD98059, even at high concentration (not shown); for conversion frequency of hLR5 cells into LD-hiPS cells: LIF and MEK inhibitor PD98059 added during the conversion process, about 0.01% without; for increase in conversion frequency compared to FGF alone: LIF and PD98059 (50 μM) in combination; for hLR5 conversion rate: agent added alone to bFGF after doxycycline withdrawal, PD98059 50 μM
Experimental: FIG. 9: Conversion rate of hLR5 cells into LD-hi PS cells is influenced by growth factors and inhibition of MEK signaling. Bar graph indicates the average number of stable pluripotent LD-hiPS colonies obtained after plating of 100.000 hLR5 cells in the presence of the indicated combinations of growth factors and MEK inhibitor (PD98059, 50 μM).
FIG. 4A outlines the procedure of converting hLR5 cells into stable iPS cells. Clonal hLR5 cell lines were plated at a density of 5000 cells per cm^2 in media containing human LIF and doxycycline to support the continued expression of ectopic reprogramming factors. The next day, doxycycline was withdrawn from the hLR5 cultures and cells were further maintained in the presence of bFGF alone (FIG. 4A). […] These cells are referred to herein as hLR5-derived human iPS cells (LD-hiPS) to signify their prior hLR5 status. The conversion frequency of hLR5 cells into LD-hiPS cells was low, approximately 0.01%, yet similar to the conversion of murine metastable iPS cells of the NOD strain into stable EpiSC-like iPS cells (Hanna et al., 2009). […] Whether LIF and/or small molecule inhibitors could positively influence the conversion of hLR5 cells to a stable pluripotent state was analyzed.

[2] = system: human pluripotent stem cells; assay: Culture of human pluripotent stem cells with pharmacological inhibitors: passaging, proliferation, colony morphology; type: cell-based; settings: for colony morphology of human pluripotent stem cells (ES cells and iPS cells): CHIR99021 (3 μM) together with PD98059 (50 μM)
Excerpt: FIGS. 12A-12C: Inhibition of PKA or GSK3β signaling enhances human pluripotent stem cell proliferation rate and improves the introduction of transgenes by homologous recombination. 12A. Cell proliferation curve. Cell numbers of human iPS cells were counted at the indicated time intervals. Plotted is the cumulative cell number over 37 days of culture. All cells were maintained in standard human iPS culture conditions (e.g., Maherali et al. Cell Stem Cell 2008, 3:340-345) with indicated additions: DMSO ([…], 0.1%); CHIR99021 (GSK3β inhibitor, 3 μM), Kenpaullone (GSK3β inhibitor, 5 μM); BIO (GSK3β inhibitor, 15 μM) and SB216763 (GSK3β inhibitor, 1 μM). 12B Colony morphology of human pluripotent stem cells cultured in the presence of the GSK3β inhibitor (3 μM) and PD98059 (50 μM). 12C Influence of signaling inhibitors on the introduction of a 10 kb transgene construct carrying a puromycin selection cassette. Puromycin selection was applied at 0.25 μg/mL 48 hours after electroporation of human iPS cells with 20 μg of the linearized plasmid.
It was therefore sought to explore if small molecule inhibitors can affect human pluripotent stem cell colony morphology, proliferation and the ability to introduce transgenes using homologous recombination. Human pluripotent stem cells were maintained in standard medium (DMEM/F12 containing 20% knockout serum replacement, 2 mM L-Glutamine, 1% non-essential amino acids, 100 U of penicillin, 100 μg streptomycin, 0.1 mM beta-mercaptoethanol and 5 ng/mL bFGF, with or without pharmacological inhibitors.
The inhibition of GSK3β can increase the frequency of homologous recombination in both iPS cells derived in the presence of the five reprogramming factors as described above, and in human ES cells. The human ES cells acquired a mouse ES cell-like morphology, became capable of single cell expansion, and became capable of trypsin passaging when incubated with a GSK3β inhibitor. The effect and the increase in homologous recombination could be facilitated by co-addition of MEK inhibitor(s).

hLR5 cells [3] = assay: SSEA1 cell surface marker expression by flow cytometry on hLR5 cells cultured with pathway inhibitors; type: cell-based, human; settings: flow cytometry after 1 week culture in hLR5 media with inhibitor; Jak-inhibitor I 0.6 μM, PD98059 50 μM, PD1 84352 0.8 μM, PD0325901 1 μM
Excerpt: (§1) FIGS. 2A-2F: LIF-responsiveness of hLR5 cells. 2A Western blot analysis of STAT3 phosphorylation in two independent hLR5 clones, with or without LIF-stimulation as indicated; 2B Immunostaining of STAT3 subcellular localization in hLR5 cells before (top panel) or after (bottom panel) LIF stimulation. Note the translocation of STAT3 from the cytoplasm (top panel) to the nucleus (bottom panel). Cell nuclei were visualized with DAPI; 2C Gene expression analysis of downstream target genes of the JAK/STAT signaling pathway in three hLR5 clones as well as human ES cell lines and conventional human iPS cell lines; 2D Flow cytometry analysis of SSEA 1 surface marker on hLR5 cells upon LIF removal. Lines indicate (i) LIF control, (ii) LIF substitution with bFGF, and (iii) no added growth factor; 2E Colony morphology of the hLR5 cells before (top panel) and after LIF substitution with bFGF; 2F Flow cytometry analysis of SSEA1 cell surface marker expression on hLR5 cells in the presence of small molecule inhibitors of the JAK/STAT and MEK/ERK signaling pathways. hLR5 cells were maintained in hLR5 media for 1 week in the presence of inhibitors. Grey shaded area: Jak-inhibitor, lines: MEK inhibitors (PD9805, PD1 84352 and PD0325901, as indicated). A line indicating a control (i.e., lacking inhibitor) is also present.
Upon removal or substitution of LIF from the hLR5 culture media, SSEA1 expression waned (FIG. 2D). In addition, a change in colony morphology was observed following LIF withdrawal (FIG. 2E). In murine ES cells, LIF activates the JAK/STAT3 and the RAS/MEK/MAPK signaling pathways, which have opposing roles in murine ES cell maintenance and differentiation. […] Specific inhibitors of JAK/STAT signaling or the MAPK/MEK signaling pathway were used to examine the relative role of these pathways in hLR5 cells. SSEA1 cell surface marker expression was examined by flow cytometry upon culture of hLR5 cells in the presence of specific inhibitors for 1 week.
Cells were collected by trypsinization and resuspended in ice-cold RPMI+0.5% FBS. Cells were incubated with the antibodies against the indicated surface antigens for 30 min at 4° C. The following antibodies were used for cell surface marker profiling: SSEA 1 (BD BIOSCIENCES™), TRA-1-81, TRA-1-60, SSEA3 and SSEA4 (MILLIPORE™). Cells were washed twice with RPMI/0.5% FBS and incubated with the relevant fluorophore-conjugated secondary antibody (BD BIOSCIENCES™) for 30 min at 4° C. Cells were washed twice with RPMI/0.5% FBS, resuspended in RPMI/0.5% FBS and analyzed on a BECTON-DICKINSON FACSCALIBUR™ cell analyzer.

[4] = system: JAK-STAT signaling pathway; assay: LIF stimulation of hLR5 cells: JAK-STAT pathway activation (Western blot, STAT3 immunostaining, gene expression); type: cell-based, human
Excerpt: as §1, with “present. […]” for “present.”

Cc1c[nH]c(-c2cnc(NCCNc3ccc(C#N)cn3)nc2-c2ccc(Cl)cc2Cl)n1 [CHIR99021]
enhancement of hLR5 conversion (hLR5 cells [1]): did not enhance hLR5 conversion
colony morphology of human pluripotent stem cells (ES cells and iPS cells) [2]: adopted the characteristic tight dome-shaped morphology of murine ES cells

C[S+](C)[O-] [DMSO]
trypsin passaging of human pluripotent stem cells ([2]; standard medium with inhibitor, DMSO 0.1%): allowed trypsin passaging
pluripotent stem cell proliferation rate ([2]; standard medium with inhibitor, DMSO 0.1%, cumulative cell number over 37 days): enhanced the pluripotent stem cell proliferation rate

O=C1Cc2c([nH]c3ccc(Br)cc23)-c2ccccc2N1 [Kenpaullone]
enhancement of hLR5 conversion (hLR5 cells [1]): did not enhance hLR5 conversion

O=C(NOCC1CC1)c1ccc(F)c(F)c1Nc1ccc(I)cc1Cl [PD1 84352]
expression of SSEA1 on hLR5 cells (hLR5 cells [3]): did not affect cell surface marker expression

COc1cccc(-c2cc(=O)c3ccccc3o2)c1N [PD98059]
conversion frequency of hLR5 cells into LD-hiPS cells (hLR5 cells [1]): ~0.1%
increase in conversion frequency compared to FGF alone (hLR5 cells [1]): ~8 fold
hLR5 conversion rate (hLR5 cells [1]): slight increase
colony morphology of human pluripotent stem cells (ES cells and iPS cells) [2]: adopted the characteristic tight dome-shaped morphology of murine ES cells
expression of SSEA1 on hLR5 cells (hLR5 cells [3]): did not affect cell surface marker expression

O=C(NOC[C@H](O)CO)c1ccc(F)c(F)c1Nc1ccc(I)cc1F [PD0325901]
expression of SSEA1 on hLR5 cells (hLR5 cells [3]): did not affect cell surface marker expression

Jak-inhibitor I
expression of SSEA1 on hLR5 cells (hLR5 cells [3]): marked decrease

LIF: human LIF growth factor activating JAK-STAT signaling
conversion frequency of hLR5 cells into LD-hiPS cells (hLR5 cells [1]): ~0.1%
increase in conversion frequency compared to FGF alone (hLR5 cells [1]): ~8 fold
hLR5 conversion rate (hLR5 cells [1]): slight increase
STAT3 nuclear translocation in hLR5 cells ([4]; 15 minute stimulation with human LIF, immunofluorescence): rapid STAT3 nuclear translocation
STAT3 phosphorylation in hLR5 cells ([4]; LIF stimulation, Western blot): robustly induces STAT3 phosphorylation

Source: patent US8524498B2, “Methods and compositions for homologous recombination in human cells” (The General Hospital Corporation, priority 2009, dated 2013)
